{
  "source": "paper PMC8800111",
  "about": "(The Journal of Biological Chemistry, 2021)",
  "assay_type_in_all_cases": "cell-based",
  "key": {"[1]": {"biological_target": "proteins of U3A human fibrosarcoma cells (4462 proteins detected) (Homo sapiens, UniProt O00399)", "conditions": "protein DCTN6, U3A cells"}, "[2]": {"biological_target": "proteins of U3A human fibrosarcoma cells (4462 proteins detected) (Homo sapiens, UniProt O14737)", "sequence (O14737 whole entry)": "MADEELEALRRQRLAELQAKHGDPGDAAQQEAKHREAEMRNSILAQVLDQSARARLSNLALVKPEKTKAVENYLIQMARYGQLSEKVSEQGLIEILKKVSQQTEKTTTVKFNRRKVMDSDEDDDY", "conditions": "protein PDCD5, U3A cells"}, "[3]": {"biological_target": "proteins of U3A human fibrosarcoma cells (4462 proteins detected) (Homo sapiens, UniProt O75147)", "conditions": "protein OBSL1, U3A cells"}, "[4]": {"biological_target": "proteins of U3A human fibrosarcoma cells (4462 proteins detected) (Homo sapiens, UniProt O75674)", "sequence (O75674 whole entry)": "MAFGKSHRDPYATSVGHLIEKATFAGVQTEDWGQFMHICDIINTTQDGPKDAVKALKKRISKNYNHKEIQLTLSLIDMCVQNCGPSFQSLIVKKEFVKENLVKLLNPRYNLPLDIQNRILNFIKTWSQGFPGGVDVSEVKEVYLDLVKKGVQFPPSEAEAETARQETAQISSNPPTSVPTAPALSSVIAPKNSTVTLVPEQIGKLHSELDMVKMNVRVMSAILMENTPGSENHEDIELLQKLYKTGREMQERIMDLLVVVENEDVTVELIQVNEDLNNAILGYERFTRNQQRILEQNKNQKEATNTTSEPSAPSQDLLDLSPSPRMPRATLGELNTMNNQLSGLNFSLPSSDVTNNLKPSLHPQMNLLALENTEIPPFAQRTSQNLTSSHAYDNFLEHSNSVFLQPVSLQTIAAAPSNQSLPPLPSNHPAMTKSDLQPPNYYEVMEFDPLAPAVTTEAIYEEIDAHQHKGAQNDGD", "conditions": "protein TOM1L1; soluble abundance after heat, U3A cells"}, "[5]": {"biological_target": "proteins of U3A human fibrosarcoma cells (4462 proteins detected) (Homo sapiens, UniProt P05556)", "conditions": "protein ITGB1; U3A cells"}, "[6]": {"biological_target": "proteins of U3A human fibrosarcoma cells (4462 proteins detected) (Homo sapiens, UniProt P11717)", "conditions": "protein IGF2R; soluble abundance after heat, U3A cells"}, "[7]": {"biological_target": "proteins of U3A human fibrosarcoma cells (4462 proteins detected) (Homo sapiens, UniProt P15927)", "sequence (P15927 whole entry)": "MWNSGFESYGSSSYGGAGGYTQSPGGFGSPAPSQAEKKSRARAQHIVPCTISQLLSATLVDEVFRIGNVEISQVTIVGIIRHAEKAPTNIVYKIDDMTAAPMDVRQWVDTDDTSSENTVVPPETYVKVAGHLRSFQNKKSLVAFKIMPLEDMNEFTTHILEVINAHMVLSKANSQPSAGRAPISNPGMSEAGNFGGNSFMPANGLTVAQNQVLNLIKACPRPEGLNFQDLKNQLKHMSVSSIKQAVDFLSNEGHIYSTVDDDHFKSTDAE", "conditions": "protein RPA2; U3A cells"}, "[8]": {"biological_target": "proteins of U3A human fibrosarcoma cells (4462 proteins detected) (Homo sapiens, UniProt P23919)", "sequence (P23919 whole entry)": "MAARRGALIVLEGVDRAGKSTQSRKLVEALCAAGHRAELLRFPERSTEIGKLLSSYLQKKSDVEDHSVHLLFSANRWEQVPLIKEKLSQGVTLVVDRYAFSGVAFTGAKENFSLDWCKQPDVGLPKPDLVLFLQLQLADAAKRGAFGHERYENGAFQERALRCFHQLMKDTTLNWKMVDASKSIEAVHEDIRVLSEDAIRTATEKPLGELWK", "conditions": "protein DTYMK; U3A cells"}, "[9]": {"biological_target": "proteins of U3A human fibrosarcoma cells (4462 proteins detected) (Homo sapiens, UniProt P28290)", "sequence (P28290 whole entry)": "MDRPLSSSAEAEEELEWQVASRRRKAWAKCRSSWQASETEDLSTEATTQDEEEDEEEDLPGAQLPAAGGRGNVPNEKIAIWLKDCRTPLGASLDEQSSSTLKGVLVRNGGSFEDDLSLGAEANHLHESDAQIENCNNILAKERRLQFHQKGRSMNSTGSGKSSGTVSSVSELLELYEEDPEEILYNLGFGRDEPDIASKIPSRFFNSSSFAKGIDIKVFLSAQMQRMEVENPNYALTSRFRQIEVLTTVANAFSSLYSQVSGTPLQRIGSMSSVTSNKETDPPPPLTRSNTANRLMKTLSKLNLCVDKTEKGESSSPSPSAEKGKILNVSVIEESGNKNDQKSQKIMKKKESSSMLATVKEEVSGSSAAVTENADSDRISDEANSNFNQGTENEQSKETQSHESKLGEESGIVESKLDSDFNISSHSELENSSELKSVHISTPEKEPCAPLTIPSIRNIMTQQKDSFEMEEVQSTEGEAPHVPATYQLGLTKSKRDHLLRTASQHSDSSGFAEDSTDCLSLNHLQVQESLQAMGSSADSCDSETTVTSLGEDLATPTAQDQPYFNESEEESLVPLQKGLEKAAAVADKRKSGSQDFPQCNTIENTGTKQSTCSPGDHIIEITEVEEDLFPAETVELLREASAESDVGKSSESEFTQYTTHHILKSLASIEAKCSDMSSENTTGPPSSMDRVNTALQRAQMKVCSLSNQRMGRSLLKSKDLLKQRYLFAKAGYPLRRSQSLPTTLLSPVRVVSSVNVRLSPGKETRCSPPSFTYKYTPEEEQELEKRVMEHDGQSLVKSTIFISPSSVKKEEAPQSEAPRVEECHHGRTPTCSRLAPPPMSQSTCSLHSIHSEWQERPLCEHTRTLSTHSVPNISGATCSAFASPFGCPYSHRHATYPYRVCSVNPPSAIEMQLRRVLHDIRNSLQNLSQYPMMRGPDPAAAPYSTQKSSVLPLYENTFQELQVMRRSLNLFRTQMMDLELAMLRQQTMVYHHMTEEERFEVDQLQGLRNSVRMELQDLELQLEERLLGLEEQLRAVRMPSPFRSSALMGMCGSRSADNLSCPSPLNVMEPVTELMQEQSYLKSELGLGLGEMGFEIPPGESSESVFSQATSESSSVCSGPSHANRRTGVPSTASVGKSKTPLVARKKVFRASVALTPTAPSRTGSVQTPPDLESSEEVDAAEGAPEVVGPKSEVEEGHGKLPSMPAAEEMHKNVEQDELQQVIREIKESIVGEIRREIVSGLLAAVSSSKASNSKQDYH", "conditions": "protein SSFA2; U3A, 10 μM, 2 h"}, "[10]": {"biological_target": "proteins of U3A human fibrosarcoma cells (4462 proteins detected) (Homo sapiens, UniProt P61289)", "sequence (P61289 whole entry)": "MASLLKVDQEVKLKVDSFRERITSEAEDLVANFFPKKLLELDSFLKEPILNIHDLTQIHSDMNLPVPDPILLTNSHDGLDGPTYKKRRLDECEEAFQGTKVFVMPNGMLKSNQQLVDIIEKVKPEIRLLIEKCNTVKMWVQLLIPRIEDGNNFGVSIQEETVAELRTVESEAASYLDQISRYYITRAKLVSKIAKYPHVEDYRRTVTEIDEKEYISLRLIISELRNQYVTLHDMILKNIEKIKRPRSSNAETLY", "conditions": "protein PSME3; U3A cells"}, "[11]": {"biological_target": "proteins of U3A human fibrosarcoma cells (4462 proteins detected) (Homo sapiens, UniProt Q15269)", "conditions": "protein PWP2; U3A cells"}, "[12]": {"biological_target": "proteins of U3A human fibrosarcoma cells (4462 proteins detected) (Homo sapiens, UniProt Q15459)", "sequence (Q15459 whole entry)": "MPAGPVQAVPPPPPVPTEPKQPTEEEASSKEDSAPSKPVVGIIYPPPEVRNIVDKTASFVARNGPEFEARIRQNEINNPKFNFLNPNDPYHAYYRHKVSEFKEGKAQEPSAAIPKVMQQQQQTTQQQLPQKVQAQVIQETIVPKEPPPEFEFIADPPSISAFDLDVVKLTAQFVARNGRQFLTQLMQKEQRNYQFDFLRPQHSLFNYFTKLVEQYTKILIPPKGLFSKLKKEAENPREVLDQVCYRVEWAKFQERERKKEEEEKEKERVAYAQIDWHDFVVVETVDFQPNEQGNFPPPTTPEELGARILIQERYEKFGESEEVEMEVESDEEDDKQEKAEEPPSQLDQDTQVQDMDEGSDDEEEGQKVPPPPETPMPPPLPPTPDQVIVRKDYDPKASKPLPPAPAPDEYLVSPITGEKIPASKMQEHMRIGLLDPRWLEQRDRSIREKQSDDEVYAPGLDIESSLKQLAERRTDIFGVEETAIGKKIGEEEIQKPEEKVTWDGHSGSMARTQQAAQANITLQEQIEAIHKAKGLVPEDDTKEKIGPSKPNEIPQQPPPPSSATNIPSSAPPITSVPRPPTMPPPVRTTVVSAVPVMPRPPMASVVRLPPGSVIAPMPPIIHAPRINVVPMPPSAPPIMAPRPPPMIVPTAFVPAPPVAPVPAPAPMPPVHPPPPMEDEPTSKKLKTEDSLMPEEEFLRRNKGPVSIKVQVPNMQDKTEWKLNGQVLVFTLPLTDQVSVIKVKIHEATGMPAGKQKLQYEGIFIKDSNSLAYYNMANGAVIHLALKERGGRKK", "conditions": "protein SF3A1; U3A cells"}, "[13]": {"biological_target": "proteins of U3A human fibrosarcoma cells (4462 proteins detected) (Homo sapiens, UniProt Q6AI12)", "sequence (Q6AI12 whole entry)": "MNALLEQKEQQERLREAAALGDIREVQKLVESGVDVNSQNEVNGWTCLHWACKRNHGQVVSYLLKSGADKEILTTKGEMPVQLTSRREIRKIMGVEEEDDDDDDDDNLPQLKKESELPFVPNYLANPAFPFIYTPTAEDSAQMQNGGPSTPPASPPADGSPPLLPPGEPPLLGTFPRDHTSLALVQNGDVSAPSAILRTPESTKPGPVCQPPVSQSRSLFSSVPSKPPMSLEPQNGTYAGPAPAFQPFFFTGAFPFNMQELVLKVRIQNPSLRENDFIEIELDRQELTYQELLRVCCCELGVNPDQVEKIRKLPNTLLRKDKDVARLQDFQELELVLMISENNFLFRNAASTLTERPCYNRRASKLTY", "conditions": "protein ANKRD40, U3A cells"}, "[14]": {"biological_target": "proteins of U3A human fibrosarcoma cells (4462 proteins detected) (Homo sapiens, UniProt Q8IXK0)", "conditions": "protein PHC2; U3A cells"}, "[15]": {"biological_target": "proteins of U3A human fibrosarcoma cells (4462 proteins detected) (Homo sapiens, UniProt Q8IYB5)", "sequence (Q8IYB5 whole entry)": "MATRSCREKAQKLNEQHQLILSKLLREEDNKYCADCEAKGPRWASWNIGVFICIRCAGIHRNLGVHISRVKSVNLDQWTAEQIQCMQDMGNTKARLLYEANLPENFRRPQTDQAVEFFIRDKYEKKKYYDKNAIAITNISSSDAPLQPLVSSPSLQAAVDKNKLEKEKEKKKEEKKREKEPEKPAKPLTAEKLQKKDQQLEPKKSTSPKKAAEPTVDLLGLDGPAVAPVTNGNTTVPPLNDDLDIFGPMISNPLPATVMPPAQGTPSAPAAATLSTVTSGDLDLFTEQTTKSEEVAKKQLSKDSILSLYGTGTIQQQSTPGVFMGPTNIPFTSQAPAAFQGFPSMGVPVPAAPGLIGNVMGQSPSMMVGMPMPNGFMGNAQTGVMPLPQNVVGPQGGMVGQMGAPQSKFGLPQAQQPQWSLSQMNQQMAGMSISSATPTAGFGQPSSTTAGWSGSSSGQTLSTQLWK", "conditions": "protein SMAP1; soluble abundance after heat, U3A cells"}, "[16]": {"biological_target": "proteins of U3A human fibrosarcoma cells (4462 proteins detected) (Homo sapiens, UniProt Q99873)", "conditions": "protein PRMT1, U3A cells"}, "[17]": {"biological_target": "proteins of U3A human fibrosarcoma cells (4462 proteins detected) (Homo sapiens, UniProt Q9BXY0)", "conditions": "protein MAK16; soluble abundance after heat, U3A cells"}, "[18]": {"biological_target": "proteins of U3A human fibrosarcoma cells (4462 proteins detected) (Homo sapiens, UniProt Q9BYM8)", "conditions": "protein RBCK1; U3A, 10 μM, 2 h"}, "[19]": {"biological_target": "proteins of U3A human fibrosarcoma cells (4462 proteins detected) (Homo sapiens, UniProt Q9H3P7)", "sequence (Q9H3P7 whole entry)": "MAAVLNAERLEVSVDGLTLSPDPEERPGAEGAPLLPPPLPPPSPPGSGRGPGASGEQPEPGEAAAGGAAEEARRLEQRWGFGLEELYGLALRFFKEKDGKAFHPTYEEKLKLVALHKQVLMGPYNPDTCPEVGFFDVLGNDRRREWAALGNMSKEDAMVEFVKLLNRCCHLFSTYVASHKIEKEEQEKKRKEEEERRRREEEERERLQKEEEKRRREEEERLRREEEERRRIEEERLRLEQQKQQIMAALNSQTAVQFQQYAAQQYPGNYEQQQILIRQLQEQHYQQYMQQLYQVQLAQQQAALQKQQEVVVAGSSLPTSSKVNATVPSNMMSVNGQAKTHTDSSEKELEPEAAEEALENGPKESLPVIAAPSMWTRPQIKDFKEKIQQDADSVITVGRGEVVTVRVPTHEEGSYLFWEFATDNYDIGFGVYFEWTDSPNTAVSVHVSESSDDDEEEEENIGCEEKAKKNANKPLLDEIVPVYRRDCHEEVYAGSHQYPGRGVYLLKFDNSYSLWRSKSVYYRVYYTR", "conditions": "protein ACBD3; U3A, 10 μM, 2 h"}, "[20]": {"biological_target": "proteins of U3A human fibrosarcoma cells (4462 proteins detected) (Homo sapiens, UniProt Q9H3U1)", "conditions": "protein UNC45A; U3A cells"}, "[21]": {"biological_target": "proteins of U3A human fibrosarcoma cells (4462 proteins detected) (Homo sapiens, UniProt Q9H5Q4)", "conditions": "protein TFB2M; U3A cells"}, "[22]": {"biological_target": "proteins of U3A human fibrosarcoma cells (4462 proteins detected) (Homo sapiens, UniProt Q9HC44)", "conditions": "protein GPBP1L1; soluble abundance after heat, U3A cells"}, "[23]": {"biological_target": "proteins of U3A human fibrosarcoma cells (4462 proteins detected) (Homo sapiens, UniProt Q9NQW6)", "conditions": "protein ANLN; soluble abundance after heat, U3A cells"}, "[24]": {"biological_target": "proteins of U3A human fibrosarcoma cells (4462 proteins detected) (Homo sapiens, UniProt Q9NSA3)", "sequence (Q9NSA3 whole entry)": "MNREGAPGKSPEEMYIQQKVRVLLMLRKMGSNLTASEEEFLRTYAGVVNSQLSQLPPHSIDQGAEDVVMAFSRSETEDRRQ", "conditions": "protein CTNNBIP1; U3A, 10 μM, 2 h"}, "[25]": {"biological_target": "proteins of U3A human fibrosarcoma cells (4462 proteins detected) (Homo sapiens, UniProt Q9NWH9)", "conditions": "protein SLTM; soluble abundance after heat, U3A cells"}, "[26]": {"biological_target": "proteins of U3A human fibrosarcoma cells (4462 proteins detected) (Homo sapiens, UniProt Q9UFW8)", "conditions": "protein CGGBP1; soluble abundance after heat, U3A cells"}, "[27]": {"biological_target": "proteins of U3A human fibrosarcoma cells (4462 proteins detected) (Homo sapiens, UniProt Q9UJ41)", "conditions": "protein RABGEF1; U3A cells"}, "[28]": {"biological_target": "proteins of U3A human fibrosarcoma cells (4462 proteins detected) (Homo sapiens, UniProt Q9UNX4)", "conditions": "protein WDR3; U3A cells"}, "[29]": {"biological_target": "proteins of U3A human fibrosarcoma cells (4462 proteins detected) (Homo sapiens, UniProt Q9Y592)", "conditions": "protein CEP83; U3A, 10 μM, 2 h"}},
  "data": [
    {"molecule": "CCc1nc(N)nc(N)c1-c1ccc(Cl)cc1", "note": "[pyrimethamine]", "values": [
      {"measurement": "Log2 (PYR/DMSO)", "setting": "[1]", "result": -0.04},
      {"measurement": "Log2 (PYR/DMSO)", "setting": "[2]", "result": -0.04},
      {"measurement": "Log2 (PYR/DMSO)", "setting": "[3]", "result": -0.04},
      {"measurement": "Log2 (PYR/DMSO)", "setting": "[4]", "result": 0.15},
      {"measurement": "Log2 (PYR/DMSO)", "setting": "[5]", "result": 0.16},
      {"measurement": "Log2 (PYR/DMSO)", "setting": "[6]", "result": 0.15},
      {"measurement": "Log2 (PYR/DMSO)", "setting": "[7]", "result": 0.17},
      {"measurement": "Log2 (PYR/DMSO)", "setting": "[8]", "result": 0.20},
      {"measurement": "Log2 (PYR/DMSO), SSFA2", "setting": "[9]", "result": -0.15},
      {"measurement": "Log2 (PYR/DMSO)", "setting": "[10]", "result": 0.17},
      {"measurement": "Log2 (PYR/DMSO)", "setting": "[11]", "result": 0.18},
      {"measurement": "Log2 (PYR/DMSO)", "setting": "[12]", "result": 0.16},
      {"measurement": "Log2 (PYR/DMSO)", "setting": "[13]", "result": -0.04},
      {"measurement": "Log2 (PYR/DMSO)", "setting": "[14]", "result": 0.16},
      {"measurement": "Log2 (PYR/DMSO)", "setting": "[15]", "result": 0.15},
      {"measurement": "Log2 (PYR/DMSO)", "setting": "[16]", "result": -0.05},
      {"measurement": "Log2 (PYR/DMSO)", "setting": "[17]", "result": 0.14},
      {"measurement": "Log2 (PYR/DMSO), RBCK1", "setting": "[18]", "result": -0.16},
      {"measurement": "Log2 (PYR/DMSO), ACBD3", "setting": "[19]", "result": 0.24},
      {"measurement": "Log2 (PYR/DMSO)", "setting": "[20]", "result": 0.21},
      {"measurement": "Log2 (PYR/DMSO)", "setting": "[21]", "result": 0.18},
      {"measurement": "Log2 (PYR/DMSO)", "setting": "[22]", "result": 0.14},
      {"measurement": "Log2 (PYR/DMSO)", "setting": "[23]", "result": 0.14},
      {"measurement": "Log2 (PYR/DMSO), CTNNBIP1", "setting": "[24]", "result": -0.15},
      {"measurement": "Log2 (PYR/DMSO)", "setting": "[25]", "result": 0.15},
      {"measurement": "Log2 (PYR/DMSO)", "setting": "[26]", "result": 0.14},
      {"measurement": "Log2 (PYR/DMSO)", "setting": "[27]", "result": 0.20},
      {"measurement": "Log2 (PYR/DMSO)", "setting": "[28]", "result": 0.17},
      {"measurement": "Log2 (PYR/DMSO), CEP83", "setting": "[29]", "result": -0.43}
    ]}
  ]
}
